Earlier results as cited in patent publication US20050250674A1, “Nutritional and food supplement preparation comprising creatine and orotic acid complexes, derivatives and analogs” (priority 2004, published 2005).

Conditions: oral ingestion of about 20 to 30 g per day, divided between several doses, for several days

Structure (SMILES): CN(CC(=O)O)C(=N)N [creatine, methyl guanidine-acetic acid]
- increase in human skeletal muscle total creatine content: greater than 20%
